The values below come from PubChem BioAssay AID2124 (Sanford-Burnham Center for Chemical Genomics, 2009).

This test can be described thus: cell-permeable autofluorescent compounds in GFP channel, dose response, artefact control, imaging, high-content imaging (AID 2124).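 On all read-outs here: cells exposed to compound for 48 hours before fixing.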 The following applies: cells, GFP-channel autofluorescence, high-content imaging, at 10 µM; for z-score: stronger effect = higher value.

Records with an inconclusive call do not appear. The source made the active and inactive calls. How the calls were made is not given here; tested in MIN6 cells.

For `COc1ccc(N=C2NC(=O)S/C2=C\c2ccc(N(C)C)cc2)cc1`, the z-score was -0.25 (inactive) and the cell count worked out at 2870 cells.
The like results for `N#CC(C#N)=C1C=C2C=C(N3CCCCC3)CCC2CC1` (centres undefined) were, in that order, 3 and 3020 cells.
As to `Cc1n[nH]c(C)c1N1C(=O)c2cccc3c(N4CCCCCC4)ccc(c23)C1=O`, the z-score was 0.33 and the cell count amounted to 2690 cells.
As for `CC1CCCC(C2(O)C(=O)Nc3ccccc32)C1=O` (centres undefined), the z-score was -0.33 (inactive) and the cell count was 3180 cells.
`Cc1ccccc1NCC(=O)N/N=C/c1c[nH]c2ccccc12`: the z-score was -0.33 (inactive) and the cell count was 2720 cells.
Taken in the same sequence, the figures for `CCOc1ccc(NC(=O)Cn2c(=O)oc3ccccc32)cc1` were -0.25 (inactive) and 3070 cells.
Taken in the same sequence, the figures for `COc1cc(OC)cc(C(=O)Nc2cccc(C(C)=O)c2)c1` were -0.39 (inactive) and 3260 cells.
For `O=C(Nc1nnc(-c2ccccc2)o1)Nc1ccccc1Cl`, the z-score was -0.39 (inactive) and the cell count was determined as 2750 cells.
The like results for `O=C1S/C(=C\c2ccc(N3CCOCC3)o2)C(=O)N1Cc1c(F)cccc1Cl` were, in that order, 2.04 and 1540 cells.
The like results for `COc1ccc(-c2nnn(CC(=O)N(CCO)C(C(=O)NC3CCCC3)c3ccc(F)cc3)n2)cc1` (centres undefined) were, in that order, -0.33 (inactive) and 3200 cells.
Consider `Cc1cc(C)n(C(=O)CCC2COc3ccccc3O2)n1` (centres undefined), for which the z-score is -0.25 (inactive) and the cell count turned out to be 2940 cells.
Taken in the same sequence, the figures for `CN(C)c1ccc(/C=N/NC(=O)CN(c2ccccc2Cl)S(C)(=O)=O)cc1Br` were -0.39 (inactive) and 3330 cells.
Taken in the same sequence, the figures for `Cn1c(=O)c(N)c2c3c(c(Br)ccc31)C(=O)c1ccccc1-2` were 0.12 and 3210 cells.
The like results for `CC(C)(C)c1cc(C(=O)NCc2cccnc2)ccn1` were, in that order, -0.33 (inactive) and 3450 cells.
With `O=C(COC(=O)c1ccco1)NCC1CCCO1` (centres undefined), the z-score is -0.39 (inactive) and the cell count was 2790 cells.
Take `C=CCNC(=O)c1c2c(nc3ccccc13)-c1ccccc1CC2`: the z-score is -0.39 (inactive) and the cell count was 3270 cells.
Taken in the same sequence, the figures for `CCCCN1C(=O)/C(=C/C=C2/CC(C)(C)CN2C)SC1=S` were 0.43 and 2800 cells.
The like results for `Nc1c(C(=O)c2ccc(Cl)cc2)sc2nsc(SCCN3CCOCC3)c12` were, in that order, 0.31 and 2540 cells.
The like results for `CN(C)C=Nc1ccc2nn(-c3ccccc3)nc2c1` were, in that order, -0.34 (inactive) and 3050 cells.
Consider `COC(=O)Cc1c(C)nc2nc(NCc3ccccc3OC)[nH]n2c1=O`, for which the z-score is -0.26 (inactive) and the cell count came to 3050 cells.
The like results for `CC(Sc1ccccc1)C(=O)NN=C1CCCCCC1` (centres undefined) were, in that order, -0.39 (inactive) and 2920 cells.
The like results for `O=C(C1=C[C@H](C2CC2)C[C@H](OCCCCO)O1)N1CCN(Cc2ccccc2)CC1` were, in that order, -0.38 (inactive) and 2880 cells.
The like results for `O=C(c1cccs1)c1no[n+]([O-])c1C(=O)c1cccs1` were, in that order, -0.31 (inactive) and 586 cells.
Regarding `COC1=CCC2([N+](=O)[O-])CN(CCO)CC1([N+](=O)[O-])C2` (centres undefined), the z-score is -0.33 (inactive) and the cell count came out at 3440 cells.
The like results for `CN1CCN(C2=CC3=CC(=C(C#N)C#N)CCC3CC2)CC1` (centres undefined) were, in that order, 0.91 and 2810 cells.
As to `CC(/C=N/NC(=O)c1ccncc1)=C\c1ccc(C(C)C)cc1`, the z-score is -0.33 (inactive) and the cell count was 2700 cells.
In the case of `O=C(NC1=NCCS1)C1Cc2ccccc2CN1C(=O)c1ccccc1` (centres undefined), the z-score was -0.34 (inactive) and the cell count amounted to 2680 cells.
Taken in the same sequence, the figures for `Cc1cc(Nc2nn(C)c(N)c2C#N)ccc1F` were -0.33 (inactive) and 3300 cells.
Consider `Cc1cc(SCCOc2ccccc2)nc(N)n1`, for which the z-score was -0.39 (inactive) and the cell count worked out at 3470 cells.
Taken in the same sequence, the figures for `Brc1ccc(Oc2nsnc2N2CCOCC2)cc1` were -0.34 (inactive) and 3270 cells.
The like results for `CCCC(=O)c1c(C)c2ccccc2n1C` were, in that order, -0.38 (inactive) and 3160 cells.
Taken in the same sequence, the figures for `COc1cc2nc(/C=C/c3ccc(N(C)C)cc3)sc2cc1SC` were 0.29 and 2900 cells.
Take `Oc1c(/C=C/C=C/C=Nc2ccccc2)sc(=S)n1Cc1ccccc1`: the z-score was -0.33 (inactive) and the cell count was 2740 cells.
The like results for `CCN1/C(=C/C=C/c2oc3ccc4ccccc4c3[n+]2CC)Oc2ccc3ccccc3c21` were, in that order, 1.7 and 330 cells.
The like results for `CCOc1ccc(-n2c(SCC(=O)NC(C)CC)nc3n[nH]c(C)c3c2=N)cc1` (centres undefined) were, in that order, -0.39 (inactive) and 2580 cells.
The like results for `CCN(CC)c1ccc2cc(-c3nnc(-c4ccccc4)o3)c(=O)oc2c1` were, in that order, 1.33 and 3220 cells.
`Cc1cc(C)cc(-n2c(=O)c3sccc3n(CC(=O)NCc3ccco3)c2=O)c1`: the z-score is -0.39 (inactive) and the cell count amounted to 3120 cells.
The like results for `NS(=O)(=O)c1ccc(NC=C2C(=O)OC3(CCCCC3)OC2=O)cc1` were, in that order, -0.25 (inactive) and 3080 cells.
The like results for `COC(=O)c1cc(NC(=O)c2ccccc2)c(=O)oc1/C=C/Nc1ccc(Oc2ccccc2)cc1` were, in that order, 0.11 and 3070 cells.
Taken in the same sequence, the figures for `CCOc1ccc(NC(=O)C2CCC(C)(C(=O)O)C2(C)C)cc1` (centres undefined) were -0.39 (inactive) and 3170 cells.
Turning to `COc1nc(OC)nc(N2CCC(C(=O)NCc3cccs3)CC2)n1`, the z-score was -0.33 (inactive) and the cell count was 2940 cells.
Turning to `CCCCNC(=O)C1CC(=O)N(C2CCCCC2)C1` (centres undefined), the z-score was -0.33 (inactive) and the cell count stood at 3070 cells.
The like results for `COC(=O)c1sccc1NC(=O)c1cc(OC)c(OC)c(OC)c1` were, in that order, -0.39 (inactive) and 3020 cells.
Taken in the same sequence, the figures for `CCCCCCc1cc2cc(-c3nnc(-c4ccccc4OC)o3)c(=O)oc2cc1O` were -0.21 (inactive) and 2630 cells.
Taken in the same sequence, the figures for `O=C(NCc1cn2ccccc2n1)c1ccco1` were -0.33 (inactive) and 3100 cells.
Take `c1ccc2c(N3CCNCC3)nsc2c1`: the z-score is -0.39 (inactive) and the cell count came out at 2010 cells.
Regarding `CNC(=O)c1ccc(-c2sc3nc(N4CCOCC4)c4c(c3c2N)CC(C)(C)OC4)o1`, the z-score is -0.33 (inactive) and the cell count came to 2290 cells.
Taken in the same sequence, the figures for `CC(C)C(C)(C#N)NC(=O)CSc1nnc(C(F)(F)F)n1C` (centres undefined) were -0.33 (inactive) and 3010 cells.
The like results for `Cc1ccn2c(NC3CCCCC3)c(C)nc2c1` were, in that order, -0.39 (inactive) and 2990 cells.
The like results for `CCOc1ccc(CNC(=O)CCn2c(=O)oc3ccccc32)cc1` were, in that order, -0.38 (inactive) and 3060 cells.
For `CCCCc1ccc2[nH]cc(CCN)c2c1`, the z-score was -0.38 (inactive) and the cell count came out at 2320 cells.
`Cc1cc(C)n(-c2ccc(C(=O)OCC(=O)N(CC(C)C)C3CCS(=O)(=O)C3)cc2)n1` (centres undefined): the z-score is -0.33 (inactive) and the cell count turned out to be 3480 cells.
The like results for `CCCCCn1nc(-c2ccccc2)c2nc3ccccc3nc21` were, in that order, 1.27 and 3200 cells.
Taken in the same sequence, the figures for `COc1ccc(C(=O)Nn2cnnc2)cc1OC` were -0.39 (inactive) and 2930 cells.
With `O=C(CCN1C(=O)/C(=C/c2cccs2)SC1=S)NNC(=O)c1cccc(O)c1`, the z-score was -0.33 (inactive) and the cell count is 3190 cells.
`COc1cc(OC)c(OC)cc1/C=C1\Oc2cc(OS(C)(=O)=O)ccc2C1=O`: the z-score was -0.24 (inactive) and the cell count was 3060 cells.
The like results for `O=c1c2ccccc2c(C=Nc2ccccc2O)c(O)n1-c1nccs1` were, in that order, -0.35 (inactive) and 2390 cells.
The like results for `CC1(C)Cc2c(ccc3ccccc23)C(c2cc3ccccc3oc2=O)=N1` were, in that order, -0.33 (inactive) and 2730 cells.
In the case of `COc1ccc(CC(=O)N2CCN(C)CC2)cc1`, the z-score was -0.33 (inactive) and the cell count worked out at 3120 cells.
Taken in the same sequence, the figures for `COc1ccc(OC)c(C2=NOC(C(=O)NCC3CCCO3)C2)c1` (centres undefined) were -0.39 (inactive) and 2830 cells.
The like results for `CC(=O)NC(c1ccc(Cl)cc1)c1c(O)ccc2ccc(O)cc12` (centres undefined) were, in that order, -0.38 (inactive) and 3140 cells.
The like results for `Cc1cc(C)n(-c2ccc(OCC(=O)O)nn2)n1` were, in that order, -0.33 (inactive) and 3400 cells.
For the molecule `COc1cc2c(cc1OC)-c1nncn1C(C)(C)C2`, the z-score is -0.32 (inactive) and the cell count came out at 3220 cells.
The like results for `CCCCn1c(SCC(=O)O)nc2ccccc21` were, in that order, -0.33 (inactive) and 2830 cells.
As to `COc1ccc(Cl)cc1NC(=O)c1c(-c2ccccc2)noc1C`, the z-score was -0.39 (inactive) and the cell count is 3300 cells.
Taken in the same sequence, the figures for `Cc1c(C(=O)O)cccc1-c1ccc(/C=C2/NC(=O)N(c3ccccc3)C2=O)o1` were -0.39 (inactive) and 3120 cells.
Taken in the same sequence, the figures for `O=C(/C=C/c1ccco1)NC(=S)Nc1ccccc1N1CCCC1` were -0.39 (inactive) and 2690 cells.
